Data on 40 molecules can be found in patent US8067460B2 (The Regents of the University of Califonia, priority 2004, dated 2011).

Read-outs that look alike come from different tables or passages of the source. No end group written: not given here.

The target of assay [1] is Kv1.3 (Mus musculus, UniProt P16390). The assay is described as follows: Inhibitory effect on K+ channels (Appendix A): Kv1.3. The format is cell-based. The following applies: for nH (Kv1.3): Hill coefficient printed beside the Kv1.3 EC50; for selectivity for Kv1.3 channels over Kv1.5 channels: Kv1.3 versus Kv1.5, from Appendix A.
In assay [2] the target is Kv1.5 (Homo sapiens, UniProt P22460). The assay is described as follows: Inhibitory effect on K+ channels (Appendix A): Kv1.5. Format: cell-based. To be noted: for nH (Kv1.5): Hill coefficient printed beside the Kv1.5 EC50.
Assay [3] addresses Kv1.4 (Homo sapiens, UniProt P22459). The assay is described as follows: Inhibitory effect on K+ channels (Appendix A): Kv1.4. Format: cell-based.
Assay [4] deals with Kv1.1 (Homo sapiens, UniProt Q09470). The assay is described as follows: Inhibitory effect on K+ channels (Appendix A): Kv1.1. Format: cell-based.
The subject of assay [5] is class-switched (IgD−CD27+) memory B cells. The following applies: cited from earlier work.
Assay [6] concerns the target BK (Homo sapiens, UniProt Q12791). As to the kind of experiment: Inhibitory effect on K+ channels (Appendix A): BK. Format: cell-based.
Assay [7] deals with Kv1.7 (Homo sapiens, UniProt Q96RP8). As to the kind of experiment: Inhibitory effect on K+ channels (Appendix A): Kv1.7. The format is cell-based.
The target of assay [8] is IKCa1 (Homo sapiens, UniProt O15554). The assay is described as follows: Inhibitory effect on K+ channels (Appendix A): IKCa1. Format: cell-based.
The test system of assay [9] is delayed-type hypersensitivity (DTH) response. The following applies: mini-pigs, cited from earlier work.

Chain of Kv1.5 (P22460 whole entry): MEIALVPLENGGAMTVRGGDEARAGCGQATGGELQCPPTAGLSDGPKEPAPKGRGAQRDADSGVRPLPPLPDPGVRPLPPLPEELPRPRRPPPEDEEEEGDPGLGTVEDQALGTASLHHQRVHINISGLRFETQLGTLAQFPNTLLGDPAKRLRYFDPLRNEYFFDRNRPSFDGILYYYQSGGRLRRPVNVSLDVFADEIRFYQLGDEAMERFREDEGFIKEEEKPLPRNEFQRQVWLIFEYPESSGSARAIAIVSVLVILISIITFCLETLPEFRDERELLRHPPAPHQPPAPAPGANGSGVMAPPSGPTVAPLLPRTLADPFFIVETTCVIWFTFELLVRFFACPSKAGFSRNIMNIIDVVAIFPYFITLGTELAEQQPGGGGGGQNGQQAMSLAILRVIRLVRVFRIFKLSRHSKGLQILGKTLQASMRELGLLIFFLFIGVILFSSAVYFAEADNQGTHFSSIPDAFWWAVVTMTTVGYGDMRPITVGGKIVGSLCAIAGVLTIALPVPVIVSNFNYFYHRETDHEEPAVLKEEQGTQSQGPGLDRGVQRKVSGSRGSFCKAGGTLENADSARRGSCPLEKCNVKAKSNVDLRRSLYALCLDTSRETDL
Chain of Kv1.3 (P16390 whole entry): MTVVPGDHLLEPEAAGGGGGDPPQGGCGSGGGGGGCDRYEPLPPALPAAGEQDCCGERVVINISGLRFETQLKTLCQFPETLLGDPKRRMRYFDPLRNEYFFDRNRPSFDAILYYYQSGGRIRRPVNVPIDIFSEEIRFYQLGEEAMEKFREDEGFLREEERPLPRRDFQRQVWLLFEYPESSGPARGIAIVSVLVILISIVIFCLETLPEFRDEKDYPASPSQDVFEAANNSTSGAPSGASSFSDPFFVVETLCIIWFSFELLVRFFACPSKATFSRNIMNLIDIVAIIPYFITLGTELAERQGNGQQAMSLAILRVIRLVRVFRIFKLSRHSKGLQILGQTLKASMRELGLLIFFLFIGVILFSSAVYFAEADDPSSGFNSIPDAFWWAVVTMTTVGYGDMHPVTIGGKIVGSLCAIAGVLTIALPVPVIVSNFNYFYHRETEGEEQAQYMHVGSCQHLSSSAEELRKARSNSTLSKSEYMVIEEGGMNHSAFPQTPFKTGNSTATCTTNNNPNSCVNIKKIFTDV
Chain of Kv1.1 (Q09470 whole entry): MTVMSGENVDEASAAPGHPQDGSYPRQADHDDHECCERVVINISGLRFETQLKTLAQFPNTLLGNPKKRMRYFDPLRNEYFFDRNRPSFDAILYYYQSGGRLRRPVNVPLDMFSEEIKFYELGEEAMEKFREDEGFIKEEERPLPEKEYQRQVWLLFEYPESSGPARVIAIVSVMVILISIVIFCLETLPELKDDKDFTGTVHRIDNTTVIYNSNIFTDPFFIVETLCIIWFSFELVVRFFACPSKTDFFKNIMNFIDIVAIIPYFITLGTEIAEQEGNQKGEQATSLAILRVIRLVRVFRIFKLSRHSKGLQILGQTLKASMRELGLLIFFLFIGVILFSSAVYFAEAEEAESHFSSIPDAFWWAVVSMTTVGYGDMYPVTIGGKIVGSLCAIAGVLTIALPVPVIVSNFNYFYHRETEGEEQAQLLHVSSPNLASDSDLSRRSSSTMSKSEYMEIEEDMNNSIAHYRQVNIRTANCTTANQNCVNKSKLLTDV
Chain of Kv1.4 (P22459 whole entry): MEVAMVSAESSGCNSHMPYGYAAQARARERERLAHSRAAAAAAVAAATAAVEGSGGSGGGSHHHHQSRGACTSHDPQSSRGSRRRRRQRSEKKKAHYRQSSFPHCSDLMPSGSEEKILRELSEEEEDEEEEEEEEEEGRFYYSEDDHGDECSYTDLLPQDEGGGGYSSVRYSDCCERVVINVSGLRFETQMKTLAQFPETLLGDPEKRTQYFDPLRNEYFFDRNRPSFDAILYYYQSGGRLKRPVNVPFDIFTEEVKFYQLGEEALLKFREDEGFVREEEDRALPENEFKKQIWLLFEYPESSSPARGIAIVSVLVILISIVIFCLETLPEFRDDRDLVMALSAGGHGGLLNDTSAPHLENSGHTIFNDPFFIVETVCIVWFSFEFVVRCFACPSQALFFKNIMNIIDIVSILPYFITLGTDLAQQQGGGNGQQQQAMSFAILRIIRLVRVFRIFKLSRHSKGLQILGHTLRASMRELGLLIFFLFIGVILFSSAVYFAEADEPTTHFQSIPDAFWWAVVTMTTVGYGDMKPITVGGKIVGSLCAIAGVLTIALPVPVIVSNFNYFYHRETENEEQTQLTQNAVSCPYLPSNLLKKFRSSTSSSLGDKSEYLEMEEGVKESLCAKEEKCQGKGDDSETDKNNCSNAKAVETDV
Chain of BK (Q12791 whole entry): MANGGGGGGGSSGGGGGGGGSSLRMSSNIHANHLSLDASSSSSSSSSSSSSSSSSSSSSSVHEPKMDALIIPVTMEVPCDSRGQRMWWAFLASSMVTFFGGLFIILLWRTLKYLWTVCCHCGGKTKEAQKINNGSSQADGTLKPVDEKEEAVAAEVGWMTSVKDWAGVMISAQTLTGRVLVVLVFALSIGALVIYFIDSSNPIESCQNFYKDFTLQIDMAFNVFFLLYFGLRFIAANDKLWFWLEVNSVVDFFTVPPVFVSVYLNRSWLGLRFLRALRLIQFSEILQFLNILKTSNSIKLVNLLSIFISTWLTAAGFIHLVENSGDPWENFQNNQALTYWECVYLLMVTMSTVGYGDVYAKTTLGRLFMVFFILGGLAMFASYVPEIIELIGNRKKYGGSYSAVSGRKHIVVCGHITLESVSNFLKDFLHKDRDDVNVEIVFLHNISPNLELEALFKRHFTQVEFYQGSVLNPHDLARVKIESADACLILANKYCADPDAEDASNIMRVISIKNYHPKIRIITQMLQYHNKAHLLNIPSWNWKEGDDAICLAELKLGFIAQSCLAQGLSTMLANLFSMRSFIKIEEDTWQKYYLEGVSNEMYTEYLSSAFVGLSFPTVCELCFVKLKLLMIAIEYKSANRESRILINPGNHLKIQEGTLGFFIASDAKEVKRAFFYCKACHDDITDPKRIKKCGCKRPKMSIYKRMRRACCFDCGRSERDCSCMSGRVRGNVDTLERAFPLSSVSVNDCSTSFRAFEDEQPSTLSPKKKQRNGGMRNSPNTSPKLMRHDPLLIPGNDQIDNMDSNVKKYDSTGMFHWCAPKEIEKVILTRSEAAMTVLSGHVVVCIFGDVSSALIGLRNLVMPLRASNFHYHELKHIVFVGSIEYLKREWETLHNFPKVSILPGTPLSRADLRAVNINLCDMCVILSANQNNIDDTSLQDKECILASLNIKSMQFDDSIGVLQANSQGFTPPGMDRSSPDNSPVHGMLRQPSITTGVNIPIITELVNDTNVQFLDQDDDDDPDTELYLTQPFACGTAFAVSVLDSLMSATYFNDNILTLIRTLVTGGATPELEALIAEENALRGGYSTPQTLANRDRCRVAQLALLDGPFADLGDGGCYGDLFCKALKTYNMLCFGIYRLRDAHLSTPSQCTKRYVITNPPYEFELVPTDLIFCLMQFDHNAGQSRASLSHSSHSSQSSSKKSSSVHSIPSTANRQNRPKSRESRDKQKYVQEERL
Chain of Kv1.7 (Q96RP8 whole entry): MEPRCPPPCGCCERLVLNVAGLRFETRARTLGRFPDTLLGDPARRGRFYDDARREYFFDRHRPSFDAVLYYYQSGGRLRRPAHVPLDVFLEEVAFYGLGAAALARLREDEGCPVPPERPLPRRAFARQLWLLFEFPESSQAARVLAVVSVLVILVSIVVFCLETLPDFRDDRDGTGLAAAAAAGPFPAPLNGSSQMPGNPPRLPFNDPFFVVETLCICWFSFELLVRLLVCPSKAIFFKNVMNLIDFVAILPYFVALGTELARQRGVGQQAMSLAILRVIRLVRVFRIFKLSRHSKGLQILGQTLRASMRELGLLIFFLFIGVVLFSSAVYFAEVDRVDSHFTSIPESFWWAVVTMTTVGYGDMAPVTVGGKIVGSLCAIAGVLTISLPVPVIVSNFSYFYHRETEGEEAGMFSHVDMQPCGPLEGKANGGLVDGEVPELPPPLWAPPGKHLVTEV

What is called EC50 is the concentration giving half of the maximal effect. Low values mean higher potency in that assay, high ones lower potency in that assay. As to `COc1ccc(OCCCCOc2c3ccoc3cc3oc(=O)ccc23)cc1` [AS67, 4-(4-[4-Methoxyphenoxy]butoxy)-7H-furo[3,2-g][1]benzopyran-7-on], the “nH (Kv1.3)” value in assay [1] was 2.1. Besides, a half-maximal response in [2] (EC50) required 0.01 ± 0.001 µM.

On to `N#CCCCOc1c2ccoc2cc2oc(=O)ccc12`, for which the response in assay [2] (cells printed in μM) was half-maximal at 12 µM (EC50).

`COc1ccc2sc(SCCCCOc3c4ccoc4cc4oc(=O)ccc34)nc2c1` showed an EC50 in assay [2] of 0.1 µM. That is a sub-micromolar value.

`O=c1ccc2c(OCCCCNc3ccncc3)c3ccoc3cc2o1` showed a 50% effective concentration (EC50) in [2] (cells printed in μM) of 5 µM. This counts as single-digit micromolar.

In the case of `O=c1ccc2c(OCCCCOc3ccc4ccccc4c3)c3ccoc3cc2o1` [AS118], the “nH (Kv1.3)” value in assay [1] amounted to 2.1. Besides, in assay [2], the half-maximal effective concentration (EC50) turned out to be 0.08 ± 0.01 µM and the “nH (Kv1.5)” value is given as 2.0.

In the case of `O=c1ccc2c(OCCCCOc3ccc([N+](=O)[O-])cc3)c3ccoc3cc2o1` [AS78, 4-(4-[4-Nitrophenoxy]butoxy)-7H-furo[3,2-g][1]benzopyran-7-on], in assay [1], the “nH (Kv1.3)” value is given as 1.9 and the “selectivity for Kv1.3 channels over Kv1.5 channels” value is given as “selective for Kv1.3 channels over Kv1.5 channels”. Also, the response in [2] was half-maximal at 0.105 ± 0.008 µM (EC50).

`O=c1ccc2c(OCCCOc3ccccc3)c3ccoc3cc2o1` [PAP 3, 4-(3-Phenoxypropoxy)-7H-furo[3,2-g][1]benzopyran-7-on]: the 50% effective concentration (EC50) in assay [3] is around 0.5 µM; in [4] it was 0.08 ± 0.01 µM; in assay [2], 0.1 ± 0.008 µM.

Take `O=c1ccc2c(OCCCCOc3cccc4ccccc34)c3ccoc3cc2o1` [AS111]: the “nH (Kv1.3)” value in assay [1] is 2.0. In addition, in assay [2], the 50% effective concentration (EC50) is 0.05 ± 0.005 µM and the “nH (Kv1.5)” value is listed as 2.0.

On to `Cc1ccc(OCCCCOc2c3ccoc3cc3oc(=O)ccc23)c([N+](=O)[O-])c1`, for which it took 0.248 ± 0.02 µM to reach a half-maximal effect in assay [2] (EC50).

For `Cc1ccc(OCCCCOc2c3ccoc3cc3oc(=O)ccc23)cc1` [AS96, 4-(4-[4-Methylphenoxy]butoxy)-7H-furo[3,2-g][1]benzopyran-7-on], the “nH (Kv1.3)” value in assay [1] is reported as 2.1. This molecule also registered an EC50 in assay [2] of 0.02 µM.

For the molecule `O=c1ccc2c(OCCCCn3cccn3)c3ccoc3cc2o1`, in [2] (cells printed in μM), it took 5 µM to reach a half-maximal effect (EC50). In other words, the single-digit micromolar range.

Take `O=c1ccc2c(OCCCCOCc3ccccc3)c3ccoc3cc2o1`: a half-maximal response in assay [2] (EC50) required 0.75 ± 0.04 µM.

On to `O=c1ccc2c(OCCCOc3ccc(Cl)cc3)c3ccoc3cc2o1` [AS132, 4-[3-(4-Chlorphenoxy)propoxy]-7H-furo[3,2-g][1]benzopyran-7-on], for which, in [1] (listed as drawing 81), the “nH (Kv1.3)” value is reported as 2.0. In [2], the “nH (Kv1.5)” value is listed as 2.0. In [2] (cells unit inferred), the midpoint of the response, the EC50, lay at 0.025 ± 0.002 µM.

For `O=c1ccc2c(OCCCOCc3ccccc3)c3ccoc3cc2o1`, in [2], the midpoint of the response, the EC50, lay at 0.17 ± 0.02 µM.

Regarding `N#CCCCCOc1c2occc2cc2ccc(=O)oc12`, in [2] (cells printed in μM), it took 10 µM to reach a half-maximal effect (EC50).

`O=c1ccc2c(OCCCCOCc3ccc(F)cc3)c3ccoc3cc2o1`: in assay [1], the “nH (Kv1.3)” value is 2.

In turn, `O=c1ccc2ccc(OCCCCOc3c4ccoc4cc4oc(=O)ccc34)cc2o1` returned an EC50 in assay [2] (cells printed in μM) of 5 µM.

As for “4-[3-(4-Ethylphenoxy)propoxy]-7H-furo[3,2-g][1]benzopyran-7-on [AS123]”, the values for the EC50 in assay [1] and in [2] (cells unit inferred) were 0.03 ± 0.002 µM and 0.068 ± 0.003 µM, respectively. Besides, in [1], the “nH (Kv1.3)” value amounted to 1.7. The “nH (Kv1.5)” value in assay [2] is 2.0.

With `COc1cc([N+](=O)[O-])ccc1OCCCCOc1c2ccoc2cc2oc(=O)ccc12`, in [2], the half-maximal effective concentration (EC50) came out at 0.476 ± 0.02 µM.

As to `COc1cc(OC)cc(OCCCOc2c3ccoc3cc3oc(=O)ccc23)c1` [AS104, 4-[3-(3,5-Dimethoxyphenoxy)propoxy]-7H-furo[3,2-g][1]benzopyran-7-on], in assay [1], the “nH (Kv1.3)” value was determined as 2.2.

On to “4-[3-(1-Naphthyloxy)propoxy]-7H-furo[3,2-g][1]benzopyran-7-on [AS135]”, for which, in assay [1], the EC50 stood at 0.018 ± 0.001 µM and the “nH (Kv1.3)” value amounted to 2.1.

For `O=c1ccc2c(OCCCCOc3ccc(Cl)cc3)c3ccoc3cc2o1` [AS84, 4-(4-[4-Chlorphenoxy]butoxy)-7H-furo[3,2-g][1]benzopyran-7-on], the “nH (Kv1.3)” value in assay [1] is recorded as 2.0. In addition, the EC50 in assay [2] turned out to be 0.01 µM.

As for `N#CCCCOc1c2occc2cc2ccc(=O)oc12`, the 50% effective concentration (EC50) in [2] (cells printed in μM) was 10 µM.

With “4-[3-(4-Methylphenoxy)propoxy]-7H-furo[3,2-g][1]benzopyran-7-on [AS127]”, in assay [1], the half-maximal effective concentration (EC50) came out at 0.025 ± 0.002 µM and the “nH (Kv1.3)” value is recorded as 1.9. For the same molecule, in assay [2], the “nH (Kv1.5)” value came out at 1.8. In addition, in assay [2] (cells unit inferred), the EC50 turned out to be 0.25 ± 0.01 µM.

As to `O=c1ccc2c(OCCCCc3ccccc3)c3ccoc3cc2o1` [Psora-4], in assay [5], the inhibition of proliferation result is reported as “potently inhibited”.

In the case of `CCc1ccc(OCCCCCOc2c3ccoc3cc3oc(=O)ccc23)cc1`, the “nH (Kv1.3)” value in assay [1] worked out at 2.1.

`O=c1ccc2c(OCCCCSc3ncccn3)c3ccoc3cc2o1` returned an EC50 in assay [2] of 0.159 ± 0.007 µM.

`COc1cccc(OCCCCOc2c3ccoc3cc3oc(=O)ccc23)c1` [AS68, 4-(4-[3-Methoxyphenoxy]butoxy)-7H-furo[3,2-g][1]benzopyran-7-on] registered a concentration giving a half-maximal response (EC50) in assay [2] of 0.045 ± 0.005 µM.

`O=c1ccc2c(OCCCCOc3ccccc3)c3ccoc3cc2o1` [PAP 1, 4-(4-Phenoxybutoxy)-7H-furo[3,2-g][1]benzopyran-7-on]: the half-maximal effective concentration (EC50) in assay [6] worked out at 1.5 ± 0.7 µM; in assay [7] it was 0.098 ± 0.005 µM; in assay [8], 10 ± 1 µM; in assay [3], 0.075 ± 0.005 µM; in assay [4] it was 0.065 ± 0.008 µM; in assay [2] it was 0.045 ± 0.003 µM. Further, the “nH (Kv1.3)” value in [1] came out at 1.8. The “nH (Kv1.5)” value in [2] was 2.3.

Consider `O=c1ccc2c(OCCCCCOc3ccccc3)c3ccoc3cc2o1`, for which, in assay [1], the “nH (Kv1.3)” value was 2.1.

Consider `O=c1ccc2c(OCCOCc3ccccc3)c3ccoc3cc2o1`, for which the results for the concentration giving a half-maximal response (EC50) in assay [4] and in assay [2] were 0.175 ± 0.02 µM and 0.11 ± 0.02 µM, respectively.

Regarding `O=c1ccc2c(OCCCCOc3ccc(Oc4ccccc4)cc3)c3ccoc3cc2o1` [AS85, 4-(4-[4-Phenoxyphenoxy]butoxy)-7H-furo[3,2-g][1]benzopyran-7-on], in [1], the “selectivity for Kv1.3 channels over Kv1.5 channels” value was “selective for Kv1.3 channels over Kv1.5 channels”. In assay [2], the 50% effective concentration (EC50) was 0.75 µM.

Molecule `N#CCCCCOc1c2ccoc2cc2oc(=O)ccc12` gave a concentration giving a half-maximal response (EC50) in assay [2] (cells printed in μM) of 5 µM.

Take `O=c1ccc2c(OCCCCOc3cccc(C(F)(F)F)c3)c3ccoc3cc2o1`: the “nH (Kv1.3)” value in assay [1] is given as 2.0. The same molecule gave a 50% effective concentration (EC50) in assay [2] of 0.25 µM.

As to `C=C1C[C@@]2(O)[C@@H]3CC[C@@]4(C)[C@@H]5C=CC(=O)OC[C@]5(C(C)OC(C)=O)[C@@H](OC(C)=O)[C@@H](OC(C)=O)[C@@H]4[C@@]3(C)[C@H](OC(C)=O)[C@H](OC(C)=O)[C@@]2(C)C2(C(=O)OC)O[C@H]12` (some centres unmarked) [correolide], in assay [9], the “suppression of the primary DTH response” value is on record as “effectively suppress” and the “suppression of the secondary DTH response” value was “much less effective”.

`O=c1ccc2c(OCCCCOc3ccc(F)cc3)c3ccoc3cc2o1`: in assay [1], the “nH (Kv1.3)” value was determined as 2.3. Further, in [2], the half-maximal effective concentration (EC50) is 0.012 ± 0.001 µM.

Consider “MgTX: Kv1.3 blocker MgTX (TIINVKCTSPKQCLPPCKAQFGQSAGAKCMNGKCKCYPH; ends and bridges not checked; cysteine pairing not given here; UniProt P40755 1-39, looked up)”, for which, in [9], the “suppression of the primary DTH response” value is on record as “effectively suppress” and the “suppression of the secondary DTH response” value is “much less effective”.

“4-[3-(3-Methoxyphenoxy)propoxy]-7H-furo[3,2-g][1]benzopyran-7-on [AS64]”: in assay [1], the EC50 was determined as 0.042 ± 0.003 µM and the “nH (Kv1.3)” value came to 2.05.

In [2], `COc1cc(OC)cc(OCCCCOc2c3ccoc3cc3oc(=O)ccc23)c1` [AS69, 4-(4-[3,5-Dimethoxyphenoxy]butoxy)-7H-furo[3,2-g][1]benzopyran-7-on] gave a half-maximal effective concentration (EC50) of 0.15 ± 0.02 µM.

As to `Cc1nnc(SCCCCOc2c3ccoc3cc3oc(=O)ccc23)s1`, in assay [2] (cells printed in μM), a half-maximal response (EC50) required 1 µM.
